What was measured:
[1] = species: Homo sapiens; assay: Ratio of Km for wild type recombinant human glutamate carboxypeptidase 2 to Km for recombinant human glutamate carboxypeptidase 2 K699S mutant
[2] = biological target: Glutamate carboxypeptidase 2 (Homo sapiens, UniProt Q04609); assay: Inhibition of glutamate carboxypeptidase 2 in human LNCAP cells assessed as glutamate formation using NAAG as substrate after 60 mins by fluorometric analysis; type: cell-based
Chain of Glutamate carboxypeptidase 2 (Q04609 whole entry): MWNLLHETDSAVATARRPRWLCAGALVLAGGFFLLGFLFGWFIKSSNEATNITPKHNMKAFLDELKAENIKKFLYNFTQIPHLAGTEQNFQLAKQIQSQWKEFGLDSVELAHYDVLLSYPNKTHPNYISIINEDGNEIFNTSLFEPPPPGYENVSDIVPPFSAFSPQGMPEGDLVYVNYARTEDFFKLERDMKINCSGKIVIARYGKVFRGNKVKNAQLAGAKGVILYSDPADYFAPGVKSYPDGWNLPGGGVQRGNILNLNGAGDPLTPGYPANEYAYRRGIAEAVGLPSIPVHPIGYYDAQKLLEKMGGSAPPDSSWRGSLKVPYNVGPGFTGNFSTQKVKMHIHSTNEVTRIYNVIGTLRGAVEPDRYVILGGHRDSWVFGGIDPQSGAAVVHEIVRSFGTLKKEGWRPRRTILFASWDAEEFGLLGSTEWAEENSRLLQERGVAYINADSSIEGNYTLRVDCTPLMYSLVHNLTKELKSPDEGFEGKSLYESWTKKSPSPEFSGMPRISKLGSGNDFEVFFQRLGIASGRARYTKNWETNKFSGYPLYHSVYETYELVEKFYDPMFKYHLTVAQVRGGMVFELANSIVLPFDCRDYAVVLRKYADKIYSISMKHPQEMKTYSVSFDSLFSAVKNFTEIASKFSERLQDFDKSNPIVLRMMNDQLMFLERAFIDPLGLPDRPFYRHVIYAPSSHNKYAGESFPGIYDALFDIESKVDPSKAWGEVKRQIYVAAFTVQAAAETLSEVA

Row | Compound | Ratio [1] | Ki [2]
1 | CCCCCCCC(NC(=O)[C@H](CC(=O)O)NC(C)=O)C(=O)O (mixture of isomers) | 3 | –
2 | CCC[C@H](NC(=O)N[C@@H](CCCCNC(=O)c1ccc(I)cc1)C(=O)O)C(=O)O | – | 145 nM
3 | C[C@H](NC(=O)N[C@@H](CCCCNC(=O)c1ccc(I)cc1)C(=O)O)C(=O)O | – | 325 nM
4 | CCCCCCC[C@H](NC(=O)N[C@@H](CCCCNC(=O)c1ccc(I)cc1)C(=O)O)C(=O)O | – | 29 nM
5 | CC[C@H](NC(=O)N[C@@H](CCCCNC(=O)c1ccc(I)cc1)C(=O)O)C(=O)O | – | 121 nM
6 | O=C(O)CNC(=O)N[C@@H](CCCCNC(=O)c1ccc(I)cc1)C(=O)O | – | 4390 nM
7 | CCCCC[C@H](NC(=O)N[C@@H](CCCCNC(=O)c1ccc(I)cc1)C(=O)O)C(=O)O | – | 20 nM
8 | CCCCCC[C@H](NC(=O)N[C@@H](CCCCNC(=O)c1ccc(I)cc1)C(=O)O)C(=O)O | – | 72 nM
9 | CCCC[C@H](NC(=O)N[C@@H](CCCCNC(=O)c1ccc(I)cc1)C(=O)O)C(=O)O | – | 56 nM

— ChEMBL document CHEMBL1926644, “Novel substrate-based inhibitors of human glutamate carboxypeptidase II with enhanced lipophilicity” (J Med Chem, 2011)
